Experimental data as given in US8980571B2, “Method of identifying a candidate compound which may inhibit α9-nAchR overexpression or estrogen receptor-dependent transcription in nicotine-derived-compound-induced breast cancer cells” (Taipei Medical University, priority 2011, dated 2015).

Legend:
[1] = system: ERK1/2; assay: kinase competition assay, p-ERK1/2 immunoblotting in MCF-7 cells; format: cell-based, human; conditions: 25 μM pretreatment 30 min, then E2 10 nM 30 min
Experimental: After treatment, the cells were harvested for immunoblotting analysis. The p-ERα, total ER-α, and MAPK kinase proteins levels were detected by immunoblotting analysis.
For the kinase competition assays, the cells were treated with either 10 μM Ly294002, 25 μM PD98059, or 25 μM SP600125 (all from Tocris Cookson Inc., Ellisville, USA) before the treatment with nicotine or E2. All of the cell lines were grown in phenol red-free DMEM for 7 days before the experiments (Lewis, J. S., Thomas, T. J., Pestell, R. G., Albanese, C., Gallo, M. A., and Thomas, T. 2005. Differential effects of 16alpha-hydroxyestrone and 2-methoxyestradiol on cyclin D1 involving the transcription factor ATF-2 in MCF-7 breast cancer cells. J Mol Endocrinol 34:91-105). The DMEM medium used for these experiments contained 10% FBS that had been pretreated with dextran-coated charcoal (0.5% Norit A and 0.05% Dextran T-70) to avoid the effects of serum-derived estrogenic compounds.
Cell extracts were prepared as previously in Ho, Y. S., Lai, C. S., Liu, H. I., Ho, S. Y., Tai, C., Pan, M. H., and Wang, Y. J. 2007. Dihydrolipoic acid inhibits skin tumor promotion through anti-inflammation and anti-oxidation. Biochem Pharmacol 73:1786-1795. Fifty micrograms of protein from each sample were resolved by 12% SDS-polyacrylamide gel electrophoresis, transferred to PVDF and analyzed by western blotting. […]

[2] = system: p-Akt (Ser473); assay: p-Akt immunoblotting analysis in MCF-7 cells; format: cell-based, human
Text: Both p-AKT and total (T)-AKT protein expression were detected by immunoblotting analysis. The membrane was then re-probed with a GAPDH antibody to ensure equal protein loading.
Both p-AKT and T-AKT protein expression were detected by immunoblotting analysis. The membrane was then re-probed with a GAPDH antibody to ensure equal protein loading.
Fifty micrograms of protein from each sample were resolved by 12% SDS-polyacrylamide gel electrophoresis, transferred to PVDF and analyzed by western blotting. The antibodies employed for the western blotting analysis were purchased from the following vendors: anti-Akt, anti-JNK, anti-phospho JNK, anti-estrogen receptor a (anti-ERα), anti-c-Fos, anti-ERK1/2, anti-phospho ERK1/2, and protein A/G agarose beads were purchased from Santa Cruz Biotechnology (Santa Cruz, Calif., USA); anti-GAPDH, anti-α9-nAChR, and anti-phospho ERα (Ser^167) antibodies were obtained from ABcam (Cambridge, UK); anti-phospho Akt (Ser^473, Thr^308), anti-phospho c-Jun (Ser^73), anti-phospho ERα (Ser^118), and anti-phospho ERα (Ser^104/106) antibodies were purchased from Cell Signaling Technology (Danvers, Mass.). Immunodetection was performed by probing membranes with the appropriate dilutions of specific primary antibodies at room temperature for 2 h. The membranes were then incubated at room temperature for 1 h with either alkaline phosphatase-coupled anti-mouse or anti-rabbit secondary antibodies that were purchased from Santa Cruz Biotechnology. The specific protein complexes were identified by incubating the membranes with colorigenic substrates (nitroblue tetrazolium and 5-bromo-4-chloro-3indolyl-phosphate; KPL, Inc., Gaithersburg, Md., USA). In each experiment, the membranes were also probed with an anti-GAPDH antibody as a protein loading control.

[3] = system: α9-nAChR; assay: α9-nAChR mRNA and protein expression by RT-PCR and immunoblotting in MCF-7 cells; format: cell-based, human; conditions: nicotine 10 μM, 6 h post-treatment
Experimental: After treatment, the cells were harvested, and α9-nAChR mRNA and protein expression levels were determined by RT-PCR and immunoblotting analyses.
Primers specific for the α9-nAChR subunit (forward: 5′-[sequence]-3 (SEQ ID NO:18)′ and reverse: 5′-[sequence]-3 (SEQ ID NO:19)′) were synthesized by MB Mission BioTech (Taipei, Taiwan). The PCR amplicons were analyzed in 1.2% agarose gels (Amresco, Inc, Solon, Ohio, USA) that were stained with ethidium bromide. […] The α9-nAChR mRNA fluorescence intensity was measured and normalized to GUS expression levels using the built-in Roche LightCycler software (version 4).

[4] = system: α9-nAChR promoter; assay: luciferase activity assay, pGL3(α9-nAChR) promoter constructs in MCF-7 cells; format: cell-based, human
Experimental: (§1) Cell lysates were harvested, and relative firefly luciferase activities were measured and normalized to renilla luciferase activities in the same cell lysates. […] The luciferase activity was assayed and normalized to the pRL-TK expression as described above. […] The data were analyzed using nonparametric tests; all P-values are two-sided.
All of the α9-nAChR promoter-luciferase gene fusions were constructed using a pGL3-Basic vector (Promega), and suitable α9 promoter fragments were introduced into the polylinker region of the vector, upstream of the luciferase gene. These constructs were defined as pGL3(α9-nAChR). The fragments were generated using restriction enzymes and were either cloned directly into a pGL3-Basic vector or first subcloned in a pBluescript vector and then transferred into a pGL3-Basic vector.
MCF-7 cells were plated in six-well plates and incubated overnight. The following day, the cells were transiently cotransfected with 2 μg of pGL3 (α9-nAChR) promoter plasmid and 500 ng of RLTK plasmid (Promega, Madison, Wis.) using a MP-100 microporator (Digital Bio, Seoul, Korea) according to the manufacturer's instructions. […] Twenty-four hours later, the cells were lysed with 19 Reporter Lysis Buffer (Promega, Madison, Wis.) and stored at −20° C. overnight. Luciferase activity was then determined by mixing 50 µl of the cell lysate and 50 μl of the Luciferase Assay Reagent (Promega). The total luciferase light units were quantified using a HIDEX Chameleon Microplate Reader. The relative luciferase activity was normalized to that of renilla luciferase in the same cell lysates. Each luciferase assay experiment was performed three times. In this study, the luciferase activity observed in cells transfected with the empty vector was defined as a one-fold change (i.e., basal level).
To more precisely define the regulatory elements that are required by the α9-nAChR promoter for ER-induced transcriptional activation, transient-transfection experiments were conducted using a series of 5′ promoter deletion constructs in pGL3 vectors that were transfected into MCF-7 cells. […]

[5] = system: AP1 DNA-binding sites; conditions: nicotine 0.1-10 μM, 6 h, pGL3(AP1)5, MCF-7
Experimental: as §1
MCF-7 cells were plated in six-well plates and incubated overnight. The following day, the cells were transiently cotransfected with 2 μg of pGL3 (α9-nAChR) promoter plasmid and 500 ng of RLTK plasmid (Promega, Madison, Wis.) using a MP-100 microporator (Digital Bio, Seoul, Korea) according to the manufacturer's instructions. […] Twenty-four hours later, the cells were lysed with 19 Reporter Lysis Buffer (Promega, Madison, Wis.) and stored at −20° C. overnight. Luciferase activity was then determined by mixing 50 µl of the cell lysate and 50 μl of the Luciferase Assay Reagent (Promega). The total luciferase light units were quantified using a HIDEX Chameleon Microplate Reader. The relative luciferase activity was normalized to that of renilla luciferase in the same cell lysates. Each luciferase assay experiment was performed three times. In this study, the luciferase activity observed in cells transfected with the empty vector was defined as a one-fold change (i.e., basal level). […]

[6] = cited from earlier work

| Structure (SMILES) | effect on E2-induced increase in p-ERK1/2 protein levels [1] | effect of combined treatment on E2-induced Akt (Ser473) phosphorylation ([2]; nicotine 5 μM + E2 5 nM, 15 min, MCF-7) | time to significantly increased p-Akt (Ser473) expression ([2]; nicotine 10 μM, MCF-7) [min] | p-Akt (Ser473) expression for the duration of the experiment ([2]; nicotine 10 μM, MCF-7, time course) | minimum concentration required for p-Akt (Ser473) induction ([2]; within 15 min, MCF-7) [µM] | α9-nAChR mRNA and protein expression levels [3] | induced responsiveness of promoter with positions -995 to -260 deleted ([4]; E2 10 nM or nicotine 10 μM) | nicotine-induced luciferase activity with promoter positions -41 to -1 deleted ([4]; nicotine 10 μM) | induction of α9-nAChR promoter activity (luciferase), full-length construct ([4]; nicotine 10 μM, 24 h, empty vector = one-fold) | AP1-linked luciferase activity [5] | nicotine absorbed systemically while smoking a cigarette ([6]; in vivo) | nicotine concentration in the gastric juice ([6]; in vivo) [ng/mL] | nicotine concentration in the plasma ([6]; in vivo) | nicotine concentration in the saliva ([6]; in vivo) [ng/mL] | share of inhaled nicotine absorbed by the body ([6]; studies using 14C-nicotine) |
| --- | --- | --- | --- | --- | --- | --- | --- | --- | --- | --- | --- | --- | --- | --- | --- |
| COc1cccc(-c2cc(=O)c3ccccc3o2)c1N [PD98059] | almost completely abolished | – | – | – | – | – | – | – | – | – | – | – | – | – | – |
| CN1CCCC1c1cccnc1 (stereo not drawn) [nicotine] | – | enhanced | ≤ 10 | persistent increase | 5 | significantly induced | preserved | abolished | greater than fourfold | increased the AP1-linked luciferase activity in a dose-dependent manner | roughly 1.0 mg | > 800 | approximately 15 ng/ml | > 1300 | 80-90% |
